Test: Intraocular pressure lowering effect in monkeys with normal intraocular pressure after instillation
Type: in vivo, Cynomolgus monkey
Details: male cynomolgus monkeys with normal intraocular pressure, six per group, 20 μL instillation into one eye, 0.0006 w/v % present compound solution and/or Taflotan 0.0015%
From the text: In order to study the usefulness of a combination of the present compound with tafluprost, an intraocular pressure lowering effect when the present compound and tafluprost were concomitantly administered to experimental animals (monkeys with normal intraocular pressure) was examined.
An intraocular pressure lowering effect when the present compound and tafluprost were concomitantly administered was examined. As comparison subjects, intraocular pressure lowering effects when the present compound or tafluprost was administered singly were also examined. As a control, the base and physiological saline were administered.
Present compound solution: a 0.0006 w/v % present compound solution (instillation amount: 20 μL) […]
(2) Intraocular pressure was measured immediately before administering the test compound solution, and the measured intraocular pressure was defined as initial intraocular pressure. […]
(4) At 2, 4, 6 and 8 hours after instilling the present compound solution, one drop of the 0.4% oxybuprocaine hydrochloride eye drop was instilled into the eyes for which intraocular pressure was to be measured to effect local anesthesia, and then, intraocular pressure was measured. The intraocular pressure was measured in triplicate for each eye to obtain an average of three measurements, which is shown as the result. […]

SMILES	Intraocular pressure lowering degree (change relative to average of control group) at 6 hours after instillation
CC(C)OC(=O)CNc1cccc(CN(Cc2ccc(-n3cccn3)cc2)S(=O)(=O)c2cccnc2)n1 [Present compound, isopropyl(6-{[4-(pyrazol-1-yl)benzyl](pyridin-3-ylsulfonyl)aminomethyl}pyridin-2-ylamino)acetate]	2.6 mmHg
CC(C)OC(=O)CCC/C=C\C[C@@H]1[C@@H](/C=C/C(F)(F)COc2ccccc2)[C@H](O)C[C@@H]1O [tafluprost, 1-methylethyl (5Z)-7-{(1R,2R,3R,5S)-2-[(1E)-3,3-difluoro-4-phenoxy-1-butenyl]-3,5-dihydroxycyclopentyl}-5-heptenoate]	1.9 mmHg

— patent US20140018350A1, “COMBINATION OF SULFONAMIDE COMPOUND AND TAFLUPROST” (priority 2012, published 2014)
